What was measured:
[1] = Antiproliferative activity against human SK-MEL-188 cells after 48 hrs by SRB assay; assay type: functional, cell-based; details: SK-MEL-188, 48 h
[2] = Antiproliferative activity against human WM164 cells after 48 hrs by SRB assay; assay type: functional, cell-based; details: WM164, 48 h
[3] = Antiproliferative activity against human fibroblasts after 48 hrs by SRB assay; assay type: cell-based; details: Fibroblast

Row | SMILES | IC50 [1] [µM] | IC50 [2] [µM] | IC50 [3] [µM]
1 | CCCCCCCCCCCCCCCCNC(=O)[C@@H]1CSC(c2cc(OC)c(OC)c(OC)c2)N1 (stereo partly specified) | 1.8 | 0.7 | 2.4
2 | CCCCCCCCCCCCCCNC(=O)[C@@H]1CSC(c2ccc(OC)c(OC)c2)N1 (stereo partly specified) | 1.5 | 0.8 | 2.8
3 | CCCCCCCCCCCCNC(=O)[C@@H]1CSC(c2ccc(N)cc2)N1 (stereo partly specified) | 2.2 | 1.4 | 4.1
4 | CCCCCCCCCCCCCCNC(=O)[C@H]1CSC(c2cc(OC)c(OC)c(OC)c2)N1 (stereo partly specified) | 2.6 | 1.1 | 4.1
5 | CCCCCCCCCCCCCCCCNC(=O)[C@H]1CSC(c2ccc(NC(C)=O)cc2)N1 (stereo partly specified) | 3.2 | 1.4 | 22.6
6 | CCCCCCCCCCCCCCNC(=O)[C@@H]1CSC(c2ccccc2)=N1 | 42.1 | > 50 | > 50
7 | CCCCCCCCCCCCCCNC(=O)[C@@H]1CSC(c2ccc(OC)c(OC)c2)=N1 | 19.1 | 42.9 | > 50
8 | CCCCCCCCCCCCCCCCNC(=O)[C@@H]1CSC(c2ccc(NC(C)=O)cc2)N1C (stereo partly specified) | 29.1 | > 100 | > 100
9 | COc1cc(C2SCC3C(=O)N4C(CSC4c4cc(OC)c(OC)c(OC)c4)C(=O)N32)cc(OC)c1OC (stereo unspecified) | > 50 | > 50 | > 50
10 | CCCCCCCCCCCCNC(=O)[C@@H]1CSC(c2ccc(NC(C)=O)cc2)N1 (stereo partly specified) | 2.4 | 1.2 | 3.5
11 | CCCCCCCCCCCCCCCCNC(=O)[C@@H]1CSC(c2ccccc2)N1 (stereo partly specified) | 1.9 | 0.7 | 2.2
12 | CCCCCCCCCCNC(=O)[C@@H]1CSC(c2cc(OC)c(OC)c(OC)c2)N1 (stereo partly specified) | 14.5 | 2.1 | 6.7
13 | CON(C)C(=O)[C@@H]1CSC(c2ccccc2)N1 (stereo partly specified) | > 100 | > 100 | > 100
14 | CCCCCCCCCCCCCCCNC(=O)[C@@H]1CSC(c2ccc(NC(C)=O)cc2)N1 (stereo partly specified) | 1.6 | 1 | 14.3
15 | CCCCCCCCCCCCCCCCNC(=O)[C@@H]1CSC(c2ccc(NC(C)=O)cc2)N1 (stereo partly specified) | 2.1 | 0.6 | 19.1
16 | CCCCCCCCC/C=C\CCCCCCCNC(=O)[C@@H]1CSC(c2ccc(NC(C)=O)cc2)N1 (stereo partly specified) | 1.4 | 1 | 10.6
17 | CCCCCCCCC/C=C/CCCCCCCNC(=O)[C@@H]1CSC(c2ccc(NC(C)=O)cc2)N1 (stereo partly specified) | 3.3 | 1.4 | 18

Row | SMILES | IC50 [1] [µM] | IC50 [2] [µM] | IC50 [3] [µM]
18 | CCCCCCCCCCCCCCNC(=O)[C@@H]1CSC(c2ccccc2)N1 (stereo partly specified) | 1.9 | 0.6 | 2.8
19 | CCCCCCCCCCCCNC(=O)[C@@H]1CSC(c2cc(OC)c(OC)c(OC)c2)N1 (stereo partly specified) | 2.1 | 2.4 | 2.4
20 | CCCCCCCCCCCCCCNC(=O)[C@@H]1CSC(c2cc(OC)c(OC)c(OC)c2)N1 (stereo partly specified) | 2 | 1.6 | 2.6
21 | CCCCCCCCCCCCNC(=O)[C@@H]1CSC(c2ccc3c(c2)OCO3)N1 (stereo partly specified) | 3.5 | 2.5 | 5.2
22 | CCCCCCCCCCCCCCNC(=O)[C@@H]1CSC(c2ccc3c(c2)OCO3)N1 (stereo partly specified) | 1.6 | 1 | 4.2
23 | CCCCCCCCCCCCCCCCNC(=O)[C@@H]1CSC(c2ccc3c(c2)OCO3)N1 (stereo partly specified) | 1.6 | 1.8 | 5.7
24 | CCCCCCCCNC(=O)[C@@H]1CSC(c2cc(OC)c(OC)c(OC)c2)N1 (stereo partly specified) | 17.1 | 19.6 | 20.8
25 | CCCCCCCCCCNC(=O)[C@@H]1CSC(c2ccc(OC)c(OC)c2)N1 (stereo partly specified) | 11.9 | 6.1 | 6.3
26 | CCCCCCCCCCCCCCCCNC(=O)[C@@H]1CSC(c2ccc(N)cc2)N1 (stereo partly specified) | 2.3 | 1.4 | 7.4
27 | CCCCCCCCCCCCNC(=O)[C@@H]1CSC(c2ccc(OC)c(OC)c2)N1 (stereo partly specified) | 2.9 | 1.6 | 4.5
28 | CCCCCCCCCCCCCCCCCNC(=O)[C@@H]1CSC(c2ccc(NC(C)=O)cc2)N1 (stereo partly specified) | 8.5 | 2.4 | 35.8
29 | CCCCCCCCCCNC(=O)[C@@H]1CSC(c2ccc3c(c2)OCO3)N1 (stereo partly specified) | 6.6 | 4.5 | 8.2
30 | CCCCCCCCCCCCCCNC(=O)[C@@H]1CSC(c2ccc(NC(C)=O)cc2)N1 (stereo partly specified) | 2.3 | 0.6 | 3.6
31 | CCCCCCCCCCCCCCCCCCNC(=O)[C@@H]1CSC(c2ccc(NC(C)=O)cc2)N1 (stereo partly specified) | 22.3 | 11.6 | > 60
32 | CCCCCCCCCCCCCCCCNC(=O)[C@@H]1CSC(c2ccc(OC)c(OC)c2)N1 (stereo partly specified) | 1.5 | 0.5 | 2.1
33 | CN(C)/N=N/c1[nH]cnc1C(N)=O [DACARBAZINE] | > 100 | > 100 | 
34 | CNC(=O)c1cc(Oc2ccc(NC(=O)Nc3ccc(Cl)c(C(F)(F)F)c3)cc2)ccn1 [SORAFENIB] | 5.4 | 4.9 | 15.1

From ChEMBL document CHEMBL1149555, “Synthesis and antiproliferative activity of thiazolidine analogs for melanoma” (Bioorg Med Chem Lett, 2007)
